Earlier results as cited in patent US20140134224A1, “STABLE COMPOSITION OF HOCI, A PROCESS FOR ITS PRODUCTION AND USES THEREOF” (priority 2011, published 2014).
Where two headings read alike, the source gives them in different places.

Columns and labels:
[1] = unstabilised HOCl solutions of the prior art
B. metiens spores = conditions: 25 ppm available chlorine
[2] = Kapoor 1968

| Compound | half-life [1] | time taken to produce a 99% kill of spores (B. metiens spores; pH 6) [min] | time taken to produce a 99% kill of spores (B. metiens spores; pH 7) [min] | time taken to produce a 99% kill of spores (B. metiens spores; pH 8) [min] | time taken to produce a 99% kill of spores (B. metiens spores; pH 9) [min] | time taken to produce a 99% kill of spores (B. metiens spores; pH 9.35) [min] | time taken to produce a 99% kill of spores (B. metiens spores; pH 10) [min] | time taken to produce a 99% kill of spores (B. metiens spores; pH 12.86) [min] | times less effective than hypochlorous acid as a disinfectant [2] |
| --- | --- | --- | --- | --- | --- | --- | --- | --- | --- |
| OCl [HOCl, Hypochlorous (or hydrochlorous) acid] | around 48 hours | 2.5 | 3.6 | 5 | 19.5 | 35.5 | 131 | 465 |  |
| OCl [hypochlorite ion, hypochlorite] |  |  |  |  |  |  |  |  | up to 120 times |
